From patent publication US10227369B2, “Short-chain fatty acid hexosamine analogs and their use in tissue engineering applications” (THE JOHNS HOPKINS UNIVERSITY, priority 2013, dated 2019)
“Also recorded” adds a separate entry of the source.

Experiments:
Type in all cases: cell-based, bovine
[1] = tested on: unstimulated chondrocytes; experiment: Unstimulated (no IL-1β) chondrocytes in 3D PEGDA hydrogels: biochemical analysis and histology; details: for DNA content of cell-laden hydrogels (cell viability): 21 days exposure; for sGAG deposition / total collagen accumulation / type II collagen immunostaining: 21 days
Experimental: (§1) Cell Isolation and Culturing. Bovine chondrocytes were isolated from 4- to 8-week-old calves (Research 87, Inc., Boylston, Mass.), as previously described. Briefly, cartilage was dissected from the femoral patellar groove and condyles and minced into approximately 1 mm^2 pieces. Cells were isolated from the tissue by digesting overnight at 37° C. with 2 mg/ml type II collagenase (Worthington Biochemical Corp., Lakewood, N.J.), 5% fetal bovine serum (FBS), 100 U/ml penicillin and 100 μg/ml streptomycin on an orbital shaker. The cell suspension was passed through a 70 μm cell strainer, followed by centrifugation. Cells were washed 3 times using sterile phosphate buffered saline (PBS). Chondrocyte medium was composed of high glucose Dulbecco's Modified Eagle's Medium (DMEM) supplemented with 10 mM HEPES, 0.4 mM L-proline, 50 μg/ml ascorbic acid, 10% (v/v) fetal bovine serum (FBS; Hyclone Laboratories, Inc., Logan, Utah), 0.1 mM non-essential amino acids, 100 U/ml penicillin and 100 μg/ml streptomycin.
(§2) Photoencapsulation in Poly(Ethylene Glycol)-Diacrylate (PEGDA) Hydrogels and Construct Culturing. For all 3D culture experiments, cells were photoencapsulated in PEGDA hydrogels, as previously described. Briefly, 100 mg PEGDA (3.4 kDa, SunBio, Anyang City, South Korea) was dissolved in 1 ml sterile PBS. A photoinitiator solution of Irgacure® 2959 (CIBA Specialty Chemicals) was prepared by dissolving 100 mg of Irgacure® 2959 in 1 ml 70% ethanol. Five microliters of the Irgacure® 2959 solution was added to 1 ml of PEGDA solution. Cells were suspended in the hydrogel precursor solution at a density of 20 million cells/ml and polymerized in sterile molds. A high cell density was chosen as it has been shown. Based on our previous studies a high cell density was chosen to best to support a cell phenotype and differentiation and cell phenotype. Polymerization was carried out using UV light (365 nm, 3.2 mW/cm^2) exposure for 5 minutes.
(§3) Biochemical Analysis. The constructs (n=3 for chondrocyte experiments and n=4 for chondrogenic experiments) were lyophilized for 48 hours and the dry weights measured. Constructs were then homogenized in 125 μg/ml papainase (Worthington Biochemical Corp., Lakewood, N.J.) and digested for 16 hours at 60° C. Quantification of DNA content was carried out using a Hoescht Dye 33342 DNA assay. Calf thymus DNA was used to generate standard curves. Quantification of sulfated glycosaminoglycans (sGAG), a molecule found in cartilage ECM, was carried out using a 1,9-dimethylmethylene blue (DMMB) dye assay; chondroitin sulfate was used to generate standard curves. Quantification of collagen was carried out via measuring hydroxyproline content after hydrolyzing in 6 N HCl overnight at 120° C. The reaction of hydroxyproline with chloramine-T and p-dimethylaminobenzaldehyde was performed as a measure of total collagen content; hydroxyproline was used to generate standard curves.
(§4) Histology and Immunohistochemistry. Constructs were fixed in 10% formalin or 4% paraformaldehyde followed by dehydration in increasing concentrations of ethanol, embedded in paraffin and sliced into 5 μm sections. After paraffin removal and subsequent rehydration, sections were stained for proteoglycans using Safranin-O and fast green or prepared for immunohistochemistry. For immunohistochemical staining of type II collagen, endogenous peroxidase was quenched using 3% (v/v) hydrogen peroxide in methanol. Sections were then incubated at 37° C. with 2.5% (w/v) hyaluronidase and stained using a Histostain-SP Kit (AEC, Broad Spectrum) (Life Technologies, Grand Island, N.Y.) following the manufacturer's instructions. Primary antibody for type II collagen (Fitzgerald Industries International, Acton, Mass.) was used at a dilution of 1:100 in 1% (w/v) BSA dissolved in PBS.

[2] = tested on: IL-1β-stimulated chondrocytes; experiment: IL-1β-stimulated chondrocytes in 3D PEGDA hydrogels: biochemical analysis (DNA, sGAG, collagen), histology, immunohistochemistry; details: 10 ng/ml IL-1β; for DNA content of cell-laden hydrogels (cell viability): 21 days exposure, up to 150 μM
Experimental: as §1, §2
(§5) For chondrocyte experiments, the cell-laden hydrogels were cultured in chondrocyte medium supplemented with 10 ng/ml IL-1β for 3 days. Following the initial 3 days, constructs were cultured with medium containing specific concentrations of hexosamine analog with 10 ng/ml IL-1β for an additional 21 days. The medium was changed 3 times per week.
as §3
as §4, with “Primary antibody for type II collagen (Fitzgerald Industries International, Acton, Mass.) was used at a dilution of 1:100 in 1% (w/v) BSA dissolved in PBS.” left out

[3] = tested on: unstimulated chondrocytes; experiment: Unstimulated (no IL-1β) chondrocytes in 3D PEGDA hydrogels: real-time PCR gene expression; details: 21 days
Experimental: as §1, §2
(§6) RNA Isolation and Real-Time PCR. Total RNA was extracted using TRIzol® reagent (Life Technologies, Grand Island, N.Y.) following the manufacturer's protocol. cDNA was synthesized using Superscript® II reverse transcriptase (Life Technologies, Grand Island, N.Y.) following the manufacturer's protocol. Real-time PCR was carried out using a StepOnePlus™ Real-Time PCR System (Life Technologies, Grand Island, N.Y.). mRNA amounts for bovine primers were calculated using the ΔΔCt method. Relative mRNA quantities for goat primers were calculated using the Pfaffl method.

[4] = tested on: IL-1β-stimulated chondrocytes; experiment: IL-1β-stimulated chondrocytes in 3D PEGDA hydrogels: real-time PCR gene expression; details: 10 ng/ml IL-1β, 21 days
Experimental: as §1, §2, §5, §6

[5] = tested on: IL-1β stimulated chondrocytes; experiment: Monolayer chondrocytes with IL-1β: real-time PCR of NFκB target genes; details: 50 μM, 10 ng/ml IL-1β
Experimental: as §1
Monolayer cell culture. […]
RNA Isolation and Real-Time PCR. […] Real-time PCR was carried out using a StepOnePlus™ Real-Time PCR System (Life Technologies, Grand Island, N.Y.). mRNA amounts for bovine primers were calculated using the ΔΔCt method. Relative mRNA quantities for goat primers were calculated using the Pfaffl method.

[6] = concentrations similar to increased ECM accumulation
[7] = across the concentrations evaluated

SMILES: CCCC(=O)OC[C@H]1OC(O)[C@H](NC(C)=O)[C@@H](OC(=O)CCC)[C@@H]1OC(=O)CCC (some centres unmarked) [GlcNAc-a, 3,4,6-O-Bu3GlcNAc]
- DNA content of cell-laden hydrogels (cell viability) [1]: did not elicit a statistically significant difference
- sGAG deposition ([1]; 150 μM): a decrease was observed
- total collagen accumulation ([1]; above 50 μM): concentration dependent decrease
- type II collagen immunostaining ([1]; above 50 μM): dose-dependent decrease
- sGAG deposition ([1]; below 150 μM): did not have an effect
- total collagen accumulation ([1]; through 50 μM): maintained collagen accumulation
- type II collagen immunostaining ([1]; through 50 μM): no differences
- lowest concentration at which an increase in Safranin-O and type II collagen stains is observed ([2]; 21 days): 25 µM
- DNA content of cell-laden hydrogels (cell viability) [2]: did not elicit a statistically significant difference
- type II collagen immunostaining, stain intensity versus no analog ([2]; 21 days, 25 μM and 150 μM): slight increase in stain intensity
- change in sGAG deposition compared to no exposure ([2]; 21 days, 50 μM): almost doubling
- increase in collagen accumulation compared to no exposure ([2]; 21 days, 50 μM and 100 μM): almost doubling
- total collagen accumulation normalized to DNA ([2]; 21 days, 50 μM and 100 μM): significant increase
- type II collagen immunostaining ([2]; 21 days, 50 μM and 100 μM): increase in type II collagen immunostaining
- sGAG accumulation normalized to DNA ([2]; 21 days, at 150 μM): decreased
- sGAG accumulation normalized to DNA ([2]; 21 days, concentrations up to 100 μM, versus no analog): increase in sGAG accumulation
- type I collagen gene expression [3]: concentration-dependent decrease
- MMP13 gene expression ([3]; after lowest dose through 100 μM): decrease
- IκBα and NFκB1 gene expression ([3]; except the highest concentrations): Neither of these genes changed
- IκBα and NFκB1 gene expression ([3]; highest concentrations studied): an increase was observed
- MMP13 gene expression ([3]; lowest dose): initial increase
- IκBα gene expression [4]: decreased
- MMP13, NFκB1 and IκBα expression levels relative to unstimulated chondrocytes [4]: near to that of unstimulated
- NFKB1 gene expression [4]: decreased
- aggrecan, type II collagen and type I collagen expression relative to unstimulated chondrocytes [4]: approached expression levels found in unstimulated chondrocytes
- MMP13 gene expression ([4]; 150 μM): further decrease
- aggrecan gene expression [4, 6]: increased
- type II collagen gene expression [4, 6]: increased
- MMP13 gene expression ([4]; higher concentrations (through 100 μM)): decrease
- type I collagen gene expression ([4]; intermediate concentrations): increased
- MMP13 gene expression ([4]; low concentrations / lowest dose): initial increase
- expression levels of IL-1β, IκBα and iNOS ([5]; 4 hours exposure): able to alter expression levels of some of the genes
- expression levels of NFκB target genes (IL-1β, MMP13, ADAMTS4, ADAMTS5, iNOS, PGES, NFκB1, IκBα) ([5]; 24 hours exposure, MMP9 is the exception): decreased the expression levels of all genes evaluated

SMILES: CCCC(=O)OC1OC(CO)[C@@H](OC(=O)CCC)[C@H](OC(=O)CCC)C1NC(C)=O (some centres unmarked) [1,3,4-O-Bu3GlcNAc, reference compound]
- DNA content of cell-laden hydrogels (cell viability) [1]: no statistical differences
- sGAG deposition normalized to DNA [1, 7]: did not alter; also recorded: no statistical differences
- total collagen deposition normalized to DNA [1, 7]: did not alter; also recorded: no statistical differences
- DNA content of cell-laden hydrogels (cell viability) [2]: no statistical differences
- sGAG accumulation normalized to DNA ([2]; 21 days, across the concentrations evaluated): did not alter; also recorded: no statistical differences
- total collagen deposition normalized to DNA [2, 7]: did not alter; also recorded: no statistical differences

SMILES: CCCC(=O)OC[C@H]1OC(O)[C@@H](NC(C)=O)[C@@H](OC(=O)CCC)[C@@H]1OC(=O)CCC (some centres unmarked) [ManNAc-a, 3,4,6-O-Bu3ManNAc]
- proteoglycan deposition (Safranin-O staining) ([2]; 21 days, at 150 μM): further increase
- sGAG accumulation normalized to DNA ([2]; 21 days, at 150 μM): further increase
